Measured values from US20060276464A1, “Diarylsulfone sulfonamides and use thereof” (Wyeth, priority 2005, published 2006).
Where two headings read alike, the source gives them in different places.

What was measured:
SFRP-1 [1] = biological target: T1, SFRP-1 (Homo sapiens, UniProt Q8N474); experiment: Cell-based assay for in vitro measurement of SFRP-1/SARP2 antagonist activity (U2OS cells co-transfected with 16x TCF-tk-Luciferase reporter, Wnt and hSFRP-1); conditions: for fold induction at 10 µM: U2OS;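 for all read-outs here: U2OS cells co-transfected with a TCF-tk luciferase reporter, a Wnt vector, hSFRP-1 or empty vector and CMV-βgal, luciferase luminescence read in cell lysates alongside βgal activity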
T1 sequence (Q8N474 32-314): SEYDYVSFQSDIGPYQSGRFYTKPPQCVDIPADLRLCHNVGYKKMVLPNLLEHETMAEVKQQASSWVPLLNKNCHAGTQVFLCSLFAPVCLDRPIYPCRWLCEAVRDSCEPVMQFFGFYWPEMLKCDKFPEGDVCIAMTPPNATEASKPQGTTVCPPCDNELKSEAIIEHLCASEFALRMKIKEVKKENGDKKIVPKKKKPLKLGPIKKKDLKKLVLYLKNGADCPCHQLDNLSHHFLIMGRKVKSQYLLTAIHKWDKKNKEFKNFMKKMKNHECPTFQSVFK

SFRP-1 [2] = biological target: T1, SFRP-1; experiment: Fluorescence polarization binding assay (competitive displacement of a probe compound from SFRP-1); conditions: fluorescence anisotropy, 45 nM SFRP-1, 20 nM probe;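 note: test compound competes with a fluorescent probe held by SFRP-1, seen as a drop in probe anisotropy after incubation in darkness, with anisotropy as function of rising compound dose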
[3] = read-out: Fold Induction with SFRP-1, U2OS cells, single dose 10 μM, luciferase reporter, fold induction over SFRP-1 control
[4] = read-out: Fold Induction with SFRP-1

Row | SMILES | EC50 (SFRP-1 [1]) [nM] | fold induction at 10 µM (SFRP-1 [1]; [3]) | IC50 (SFRP-1 [2]) [nM] | fold induction at 10 µM (SFRP-1 [1]; [4])
1 | CC(C)c1ccc(S(=O)(=O)c2ccc(F)cc2)cc1S(=O)(=O)NC1CCS(=O)(=O)CC1 [Example 858, N-(1,1-dioxidotetrahydro-2H-thiopyran-4-yl)-5-[(4-fluorophenyl)sulfonyl]-2-isopropylbenzenesulfonamide] | – | 3.8 | 1400 | –
2 | O=S(=O)(NCCc1nn[nH]n1)c1cc(S(=O)(=O)c2ccccc2)ccc1C(F)(F)F [Example 863, 5-(phenylsulfonyl)-N-[2-(2H-tetrazol-5-yl)ethyl]-2-(trifluoromethyl)benzenesulfonamide] | – | 2.4 | 1800 | –
3 | CCC(CC)C(=O)N(C)CCNS(=O)(=O)c1cc(S(=O)(=O)c2ccccc2)ccc1C(F)(F)F [Example 864, 2-ethyl-N-methyl-N-[2-({[5-(phenylsulfonyl)-2-(trifluoromethyl)phenyl]sulfonyl}amino)ethyl]butanamide] | 1800 | 3.2 | 300 | –
4 | CCCCOC(=O)N(C)CCNS(=O)(=O)c1cc(S(=O)(=O)c2ccccc2)ccc1C(F)(F)F [Example 865, butyl methyl[2-({[5-(phenylsulfonyl)-2-(trifluoromethyl)phenyl]sulfonyl}amino)ethyl]carbamate] | 2140 | 2.9 | 300 | –
5 | CC(C)COC(=O)N(C)CCNS(=O)(=O)c1cc(S(=O)(=O)c2ccccc2)ccc1C(F)(F)F [Example 870, isobutyl methyl[2-({[5-(phenylsulfonyl)-2-(trifluoromethyl)phenyl]sulfonyl}amino)ethyl]carbamate] | – | 2.5 | 800 | –
6 | CN(CCNS(=O)(=O)c1cc(S(=O)(=O)c2ccccc2)ccc1C(F)(F)F)C(=O)Oc1cccc(C(F)(F)F)c1 [Example 871, 3-(trifluoromethyl)phenyl methyl[2-({[5-(phenylsulfonyl)-2-(trifluoromethyl)phenyl]sulfonyl}amino)ethyl]carbamate] | 3810 | – | 600 | 2
7 | CN(CCNS(=O)(=O)c1cc(S(=O)(=O)c2ccccc2)ccc1C(F)(F)F)C(=O)Oc1ccc(F)cc1 [Example 872, 4-fluorophenyl methyl[2-({[5-(phenylsulfonyl)-2-(trifluoromethyl)phenyl]sulfonyl]amino)ethyl]carbamate] | 1950 | – | 600 | 3.1
8 | CN(CCNS(=O)(=O)c1cc(S(=O)(=O)c2ccccc2)ccc1C(F)(F)F)C(=O)Oc1ccc(Br)cc1 [Example 873, 4-bromophenyl methyl[2-({[5-(phenylsulfonyl)-2-(trifluoromethyl)phenyl]sulfonyl}amino)ethyl]carbamate] | – | – | 1600 | 2.1
9 | CCCc1ccc(S(=O)(=O)c2ccccc2)cc1S(=O)(=O)NCCc1cccnc1 [Example 876, 5-(Phenylsulfonyl)-2-propyl-N-(2-pyridin-3-ylethyl)benzenesulfonamide] | 1360 | 3 | 800 | –

Further lines, with some results ahead:

Row | EC50 (SFRP-1 [1]) [nM] | fold induction at 10 µM (SFRP-1 [1]; [3]) | IC50 (SFRP-1 [2]) [nM] | SMILES | fold induction at 10 µM (SFRP-1 [1]; [4])
10 | 137 | 3.4 | 40 | O=C(O)c1cccc(NC(=S)N2CCC(NS(=O)(=O)c3cc(S(=O)(=O)c4ccccc4)ccc3C(F)(F)F)CC2)c1 [Example 855, 3-({[4-({[5-(phenylsulfonyl)-2-(trifluoromethyl)phenyl]sulfonyl}amino)piperidin-1-yl]carbonothioyl}amino)benzoic acid] | –
11 | 360 | 4.2 | 100 | Cc1cc(C(=O)N2CCC(NS(=O)(=O)c3cc(S(=O)(=O)c4ccccc4)ccc3C(F)(F)F)CC2)cc(Cl)n1 [Example 856, N-[1-(2-chloro-6-methylisonicotinoyl)piperidin-4-yl]-5-(phenylsulfonyl)-2-(trifluoromethyl)benzenesulfonamide] | –
12 | 1190 | 4.4 | 150 | O=C(c1cc(Cl)nc(Cl)c1)N1CCC(NS(=O)(=O)c2cc(S(=O)(=O)c3ccccc3)ccc2C(F)(F)F)CC1 [Example 857, N-[1-(2,6-dichloroisonicotinoyl)piperidin-4-yl]-5-(phenylsulfonyl)-2-(trifluoromethyl)benzenesulfonamide] | –
13 | 1780 | 4 | 600 | CNc1ccccc1S(=O)(=O)c1ccc(C(F)(F)F)c(S(=O)(=O)NC2CCNCC2)c1 [Example 861, 5-{[2-(methylamino)phenyl]sulfonyl}-N-piperidin-4-yl-2-(trifluoromethyl)benzenesulfonamide] | –
14 | – | 4 | 1300 | CN(C)c1ccccc1S(=O)(=O)c1ccc(C(F)(F)F)c(S(=O)(=O)NC2CCNCC2)c1 [Example 862, 5-{[2-(dimethylamino)phenyl]sulfonyl}-N-piperidin-4-yl-2-(trifluoromethyl)benzenesulfonamide] | –
15 | – | 4.6 | 800 | CN(CCNS(=O)(=O)c1cc(S(=O)(=O)c2ccccc2)ccc1C(F)(F)F)C(=O)NC1CCN(C(=O)OC(C)(C)C)CC1 [Example 866] | –
16 | – | 2.8 | 800 | CN(CCNS(=O)(=O)c1cc(S(=O)(=O)c2ccccc2)ccc1C(F)(F)F)C(=O)OCC(C)(C)C [Example 867, 2,2-dimethylpropyl methyl[2-({[5-(phenylsulfonyl)-2-(trifluoromethyl)phenyl]sulfonyl}amino)ethyl]carbamate] | –
17 | 2130 | 2.4 | 2500 | O=S(=O)(NCC1(O)CCCCC1)c1cc(S(=O)(=O)c2ccccc2)ccc1C(F)(F)F [Example 868, N-[(1-hydroxycyclohexyl)methyl]-5-(phenylsulfonyl)-2-(trifluoromethyl)benzenesulfonamide] | –
18 | 1760 | 3.5 | 1200 | O=S(=O)(NC1CCNCC1)c1cc(S(=O)(=O)c2ccccc2NCCO)ccc1C(F)(F)F [Example 869, 5-({2-[(2-hydroxyethyl)amino]phenyl}sulfonyl)-N-piperidin-4-yl-2-(trifluoromethyl)benzenesulfonamide] | –
19 | 257 | 3.9 | 30 | O=C(O)c1ccc(CCNS(=O)(=O)c2cc(S(=O)(=O)c3ccccc3)ccc2C(F)(F)F)cc1 [Example 877, 4-[2-({[5-(phenylsulfonyl)-2-(trifluoromethyl)phenyl]sulfonyl}amino)ethyl]benzoic acid] | –
20 | 850 | 3.4 | 280 | CN(CCNS(=O)(=O)c1cc(S(=O)(=O)c2ccccc2)ccc1C(F)(F)F)C(=O)NC1CCNCC1 [Example 881, N-(2-{methyl[(piperidin-4-ylamino)carbonyl]amino}ethyl)-5-(phenylsulfonyl)-2-(trifluoromethyl)benzenesulfonamide] | –
21 | 627 | 3.4 | 80 | CCOC(=O)CNC(=O)N(C)CCNS(=O)(=O)c1cc(S(=O)(=O)c2ccccc2)ccc1C(F)(F)F [Example 882, ethyl N-({methyl[2-({[5-(phenylsulfonyl)-2-(trifluoromethyl)phenyl]sulfonyl}amino)ethyl]amino}carbonyl)glycinate] | –
